# Source: publication PMC5641919, “Structural basis for antibacterial peptide self‐immunity by the bacterial ABC transporter McjD” (The EMBO Journal, 2017)
# Target: T1, McjD (Escherichia coli, UniProt Q9X2W0)
# T1 construct: reconstituted in E. coli polar lipid proteoliposomes for transport; plasmid-encoded mcjABCD operon
# Test: ATP-dependent Hoechst fluorescence uptake in proteoliposomes
# Format: biochemical
# Conditions: 0.1 μM Hoechst, 50 mM Tris pH 8, 50 mM KCl, E. coli polar lipids
# T1 sequence (Q9X2W0 whole entry): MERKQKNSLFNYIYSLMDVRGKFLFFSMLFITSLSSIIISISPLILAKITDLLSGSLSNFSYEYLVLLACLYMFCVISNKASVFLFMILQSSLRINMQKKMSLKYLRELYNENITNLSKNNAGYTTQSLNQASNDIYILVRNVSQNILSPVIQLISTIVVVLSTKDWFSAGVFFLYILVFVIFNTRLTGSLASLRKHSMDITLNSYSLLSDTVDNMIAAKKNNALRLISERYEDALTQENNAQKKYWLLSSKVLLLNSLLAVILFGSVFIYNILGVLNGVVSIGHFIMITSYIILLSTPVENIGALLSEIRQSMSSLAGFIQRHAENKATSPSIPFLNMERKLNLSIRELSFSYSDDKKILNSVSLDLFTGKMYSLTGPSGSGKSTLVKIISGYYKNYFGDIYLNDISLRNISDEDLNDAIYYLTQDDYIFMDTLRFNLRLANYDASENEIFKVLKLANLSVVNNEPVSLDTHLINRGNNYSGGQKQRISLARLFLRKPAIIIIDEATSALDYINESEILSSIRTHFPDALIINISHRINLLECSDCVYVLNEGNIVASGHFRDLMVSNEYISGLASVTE
compound,measurement,value
CCOc1ccc(-c2nc3ccc(-c4nc5ccc(N6CCN(C)CC6)cc5[nH]4)cc3[nH]2)cc1 [Hoechst 33342],ATP-dependent Hoechst fluorescence uptake in proteoliposomes,McjD mediates the ATP‐dependent uptake of Hoechst in proteoliposomes (black line)
